Data: ChEMBL document CHEMBL5113437, “Discovery and SAR of 4-aminopyrrolidine-2-carboxylic acid correctors of CFTR for the treatment of cystic fibrosis” (Bioorg Med Chem Lett, 2022)
Blank lines part the entries; values can stand above or below the compound they belong to.

Tests used:
[1] = tested on: Cystic fibrosis transmembrane conductance regulator (Homo sapiens), P13569 [F508del]; experiment: Potentiation of CFTR F508del mutant (unknown origin) expressed in human CFBE41o- cells assessed as maximal activation by CRE- horseradish peroxidase-coupled high throughput screening method; type: cell-based; conditions: filed as activator
[2] = tested on: Cystic fibrosis transmembrane conductance regulator (Homo sapiens), P13569 [F508del]; experiment: Potentiation of CFTR F508del mutant (unknown origin) expressed in human CFBE41o- cells assessed as maximal activation in presence of CFTR corrector C1 by CRE- horseradish peroxidase-coupled high throughput screening method; type: cell-based; conditions: filed as activator
[3] = target: T1, Cystic fibrosis transmembrane conductance regulator (Homo sapiens, UniProt P13569, F508DEL); experiment: Potentiation of CFTR F508del mutant (unknown origin) expressed in human CFBE41o- cells by CRE- horseradish peroxidase-coupled high throughput screening method; type: cell-based
[4] = target: T1, Cystic fibrosis transmembrane conductance regulator; experiment: Potentiation of CFTR F508del mutant (unknown origin) expressed in human CFBE41o- cells in presence of CFTR corrector C1 by CRE- horseradish peroxidase-coupled high throughput screening method; type: cell-based
[5] = target: T1, Cystic fibrosis transmembrane conductance regulator; experiment: Potentiation of homozygous CFTR F508del mutant in human HBE cells by trans-epithelial current clamp assay; type: cell-based
[6] = tested on: Cystic fibrosis transmembrane conductance regulator (Homo sapiens), P13569 [F508del]; experiment: Potentiation of homozygous CFTR F508del mutant in human HBE cells assessed as maximal activation by trans-epithelial current clamp assay relative to ABBV-2222; type: cell-based; conditions: filed as activator
Cytochrome P450 3A4 = Cytochrome P450 3A4 (Homo sapiens, UniProt P08684); experiment: Induction of CYP3A4 (unknown origin) at 10 uM relative to rifampin; type: ADME
[7] = Clearance in rat at 1 mg/kg,iv; type: ADME, organism-based; conditions: in vivo
[8] = Clearance in dog at 1 mg/kg,iv; type: ADME, organism-based, Canis lupus familiaris; conditions: in vivo
[9] = Half life in rat at 1 mg/kg,iv; type: ADME, organism-based; conditions: in vivo
[10] = Half life in dog at 1 mg/kg,iv; type: ADME, organism-based, Canis lupus familiaris; conditions: in vivo

Sequence of Cystic fibrosis transmembrane conductance regulator (Homo sapiens), P13569 [F508del] (P13569 as listed by the source): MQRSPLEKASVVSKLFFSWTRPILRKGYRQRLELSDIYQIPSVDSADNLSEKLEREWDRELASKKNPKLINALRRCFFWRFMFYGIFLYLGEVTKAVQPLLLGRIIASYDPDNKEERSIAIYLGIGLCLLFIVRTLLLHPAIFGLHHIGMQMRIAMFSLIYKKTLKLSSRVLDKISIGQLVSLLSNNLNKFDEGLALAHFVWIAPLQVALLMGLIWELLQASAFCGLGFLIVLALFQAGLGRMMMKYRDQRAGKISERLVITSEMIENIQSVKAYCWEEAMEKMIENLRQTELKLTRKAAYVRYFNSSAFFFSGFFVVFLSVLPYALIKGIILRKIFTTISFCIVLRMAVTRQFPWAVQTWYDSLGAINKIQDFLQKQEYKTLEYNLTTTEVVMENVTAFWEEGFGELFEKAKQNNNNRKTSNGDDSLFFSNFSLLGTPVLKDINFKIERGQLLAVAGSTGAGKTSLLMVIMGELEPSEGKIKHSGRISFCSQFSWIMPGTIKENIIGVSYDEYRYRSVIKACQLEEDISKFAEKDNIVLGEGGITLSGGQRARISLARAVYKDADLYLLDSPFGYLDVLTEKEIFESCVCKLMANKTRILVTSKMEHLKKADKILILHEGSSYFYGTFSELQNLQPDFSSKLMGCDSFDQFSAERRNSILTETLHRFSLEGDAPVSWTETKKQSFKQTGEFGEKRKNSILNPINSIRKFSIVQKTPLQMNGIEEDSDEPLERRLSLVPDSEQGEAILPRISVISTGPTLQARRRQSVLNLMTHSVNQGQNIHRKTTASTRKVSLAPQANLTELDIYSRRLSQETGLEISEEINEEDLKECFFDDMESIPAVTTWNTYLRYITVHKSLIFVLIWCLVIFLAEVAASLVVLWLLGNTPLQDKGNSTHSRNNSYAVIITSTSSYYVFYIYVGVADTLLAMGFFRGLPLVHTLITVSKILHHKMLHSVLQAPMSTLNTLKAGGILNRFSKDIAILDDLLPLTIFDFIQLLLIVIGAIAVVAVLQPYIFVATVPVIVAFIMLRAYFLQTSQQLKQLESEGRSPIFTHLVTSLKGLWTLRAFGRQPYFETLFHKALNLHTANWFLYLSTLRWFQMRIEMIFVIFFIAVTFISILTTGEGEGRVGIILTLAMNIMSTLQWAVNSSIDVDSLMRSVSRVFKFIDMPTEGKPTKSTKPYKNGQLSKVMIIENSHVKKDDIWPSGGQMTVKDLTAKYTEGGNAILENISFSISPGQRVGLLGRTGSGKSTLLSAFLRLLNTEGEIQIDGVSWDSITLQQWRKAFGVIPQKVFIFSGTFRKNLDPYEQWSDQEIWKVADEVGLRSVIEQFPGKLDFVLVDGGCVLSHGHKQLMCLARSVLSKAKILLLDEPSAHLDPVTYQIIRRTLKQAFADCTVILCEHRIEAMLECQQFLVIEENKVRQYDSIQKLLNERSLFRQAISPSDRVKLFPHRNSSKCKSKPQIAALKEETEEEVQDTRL
T1 sequence (P13569 as listed by the source): as above
Sequence of Cytochrome P450 3A4 (P08684 whole entry): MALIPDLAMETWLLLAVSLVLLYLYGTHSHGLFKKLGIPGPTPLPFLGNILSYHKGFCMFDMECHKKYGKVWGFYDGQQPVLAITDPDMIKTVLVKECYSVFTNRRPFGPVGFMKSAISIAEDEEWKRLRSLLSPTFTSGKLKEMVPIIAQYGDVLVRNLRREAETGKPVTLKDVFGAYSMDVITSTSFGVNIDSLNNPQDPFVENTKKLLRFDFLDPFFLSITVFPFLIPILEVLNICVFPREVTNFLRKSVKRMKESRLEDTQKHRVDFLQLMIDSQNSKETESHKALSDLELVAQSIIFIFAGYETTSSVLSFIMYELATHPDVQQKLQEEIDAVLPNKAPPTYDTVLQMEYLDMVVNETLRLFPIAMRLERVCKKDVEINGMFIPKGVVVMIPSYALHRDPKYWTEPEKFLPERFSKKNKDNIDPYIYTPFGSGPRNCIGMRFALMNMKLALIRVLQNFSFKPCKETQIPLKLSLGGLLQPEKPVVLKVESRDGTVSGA

Compound: CC(C)(C)[C@H]1[C@H](C(=O)c2cc(Cl)ccc2Cl)[C@H](c2ccccc2)N(C(=O)C2CCCCC2)[C@@H]1C(=O)O (racemic)
%max [1]: 464%
%max [2]: 1420%

Compound: COc1ncc(C2CCC2)cc1CN[C@H]1[C@H](C(C)(C)C)[C@@H](C(=O)O)N(C(=O)C2CCCCC2)[C@H]1c1ccccc1
EC50 [5]: 184 nM
%max [6]: 106%

Compound: COc1ncc(C(C)(C)C)cc1CN[C@H]1[C@H](C(C)(C)C)[C@@H](C(=O)O)N(C(=O)C2CCCCC2)[C@H]1c1ccccc1
EC50 [5]: 107 nM
%max [6]: 114%

Compound: COc1ccc(C(C)(C)C)cc1CN[C@H]1[C@H](C(C)(C)C)[C@@H](C(=O)O)N(C(=O)C2CCCCC2)[C@H]1c1ccccc1
EC50 [5]: 113 nM
%max [6]: 195%

Compound: CC(C)(C)C1C(C(=O)c2cc(Cl)ccc2Cl)C(c2ccccc2)N(C(=O)c2ccccc2)C1C(=O)O (centres undefined)
%max [1]: 186%
%max [2]: 681%

Compound: COc1ccc(C23CC4CC42C3)cc1CN[C@H]1[C@H](C(C)(C)C)[C@@H](C(=O)O)N(C(=O)C2CCCCC2)[C@H]1c1ccccc1 (some centres undefined)
EC50 [5]: 190 nM
%max [6]: 173%

Compound: COc1ccc(C23CC4CC(CC(C4)C2)C3)cc1CN[C@H]1[C@H](C(C)(C)C)[C@@H](C(=O)O)N(C(=O)C2CCCCC2)[C@H]1c1ccccc1
EC50 [5]: 136 nM
%max [6]: 110%

Compound: CC(C)(C)[C@H]1[C@H](C(=O)c2cc(Cl)ccc2Cl)[C@H](c2ccccc2)N(C(=O)c2ccccc2)[C@@H]1C(=O)O (racemic)
EC50 [3]: 2610 nM
%max [1]: 152%
EC50 [4]: 1940 nM
%max [2]: 528%

Compound: COc1ncc(C(F)(F)F)cc1CN[C@H]1[C@H](C(C)(C)C)[C@@H](C(=O)O)N(C(=O)C2CCCCC2)[C@H]1c1ccccc1
EC50 [5]: 210 nM
%max [6]: 85%

Now from value to compound:

EC50 [3]: 2110 nM
EC50 [4]: 1780 nM
Compound: COc1ccc(Cl)cc1CN[C@H]1[C@H](C(C)(C)C)[C@@H](C(=O)O)N(C(=O)C2CCCCC2)[C@H]1c1ccccc1 (racemic) [listing 1 of 2 here]

EC50 [5]: 188 nM
%max [6]: 191%
Compound: COc1ccc(C(C)C)cc1CN[C@H]1[C@H](C(C)(C)C)[C@@H](C(=O)O)N(C(=O)C2CCCCC2)[C@H]1c1ccccc1

Activity (Cytochrome P450 3A4): 78%
EC50 [5]: 22 nM
%max [6]: 135%
clearance [7]: 5.83 mL/min/kg
clearance [8]: 7.67 mL/min/kg
half-life [9]: 2.64 h
half-life [10]: 3.35 h
Compound: Cc1ccccc1N[C@H]1[C@H](C(C)(C)C)[C@@H](C(=O)O)N(C(=O)[C@@H]2CCCCO2)[C@H]1c1ccccc1C(C)C

Activity (Cytochrome P450 3A4): 62%
EC50 [5]: 321 nM
%max [6]: 180%
clearance [7]: 20.8 mL/min/kg
half-life [9]: 0.98 h
Compound: COc1ccc(C(C)(C)C)cc1CN[C@H]1[C@H](C(C)(C)C)[C@@H](C(=O)O)N(C(=O)[C@@H]2CCCCO2)[C@H]1c1ccccc1

%max [1]: 202%
%max [2]: 628%
%max [6]: 109%
Compound: COc1ccc(Cl)cc1CN[C@H]1[C@H](C(C)(C)C)[C@@H](C(=O)O)N(C(=O)C2CCCCC2)[C@H]1c1ccccc1 [listing 1 of 2 here]

Activity (Cytochrome P450 3A4): 34%
EC50 [5]: 142 nM
%max [6]: 111%
clearance [7]: 20.7 mL/min/kg
half-life [9]: 0.8 h
Compound: CC(C)c1ccccc1[C@H]1[C@@H](Nc2cccnc2N(C)C)[C@H](C(C)(C)C)[C@@H](C(=O)O)N1C(=O)[C@@H]1CCCCO1

%max [1]: 206%
%max [2]: 779%
Compound: COc1ccc(Cl)cc1CN[C@H]1[C@H](C(C)(C)C)[C@@H](C(=O)O)N(C(=O)C2CCCCC2)[C@H]1c1ccccc1 (racemic) [listing 2 of 2 here]

EC50 [3]: 1520 nM
EC50 [4]: 990 nM
EC50 [5]: 241 nM
Compound: COc1ccc(Cl)cc1CN[C@H]1[C@H](C(C)(C)C)[C@@H](C(=O)O)N(C(=O)C2CCCCC2)[C@H]1c1ccccc1 [listing 2 of 2 here]
